Experiment [1] has as its system CREAE. Kind of experiment: CREAE studies of structured lipids (SCH in SJL mice, MOG in C57BL mice). The experiment is classed as in vivo, C57B1/6 and SJL mice. To be noted: for Severity of CREAE (in words): oral, Studies 2 to 7, 25-350 ul; for Efficacy at low dose (FIG. 20): low dose (50 ul, Study 6); for Shape of dose response: some of the studies.
The test system of experiment [2] is EAE. The conditions noted are these: depending on dose; cited from earlier work.
In experiment [3] the test system is EAE. The conditions noted are these: guinea pig, in vivo; cited from earlier work.
For experiment [4], the system named is brain and spinal cord lesions of EAE. The conditions noted are these: GGG treated mice with histological scores 2 and 3. An excerpt: Animals were culled on PSD 25. […] Variation in the severity of changes between individual mice is summarised using a semi-quantitative five point grading system.
The test system of experiment [5] is MOG-induced CREAE in SJL Mice. Kind of experiment: MOG-induced CREAE in SJL mice, forms of GLA (Table 3). The format is in vivo. To be noted: for Mean Clinical Score / No. with EAE: 100 μl of test lipid.

The text below walks through data of patent US7964641B2, “Treatment of neurodegenerative conditions” (BTG International Limited, priority 2003, dated 2011).

Values joined by “and” are separate entries in the source; they are usually repeats but may differ in a detail not shown here. Identical values can stand only once. “Also recorded” adds a separate entry of the source. Marks after values point to notes of the source that are not given here.

For the compound `CCCCC/C=C\C/C=C\C/C=C\CCCCC(=O)OCC(COC(=O)CCCC/C=C\C/C=C\C/C=C\CCCCC)OC(=O)CCCCCCCCC` [G-C-G, Glycerol 1,3-dioctadeca-(6Z,9Z,12Z)-trienoate 2-decanoate, reference compound], the “Severity of CREAE (in words)” value in experiment [1] is listed as “failed to treat the condition; also recorded: lack of efficacy”.

Consider `CCCCC/C=C\C/C=C\C/C=C\CCCCC(=O)O` [γ-linolenic acid], for which, in experiment [2], the “Protection in acute rat EAE” value was “fully protective”.

Regarding `CCCCC/C=C\C/C=C\CCCCCCCC(=O)O` [linoleic acid], the “Protection in acute rat EAE” value in experiment [2] was “dose-dependent action on the clinical severity but did not abolish it”. Besides, the “Incidence and severity of EAE” value in experiment [3] was “partially suppresses”.

Turning to `CCCCC/C=C\C/C=C\C/C=C\C/C=C\CCCC(=O)OC(COC(=O)CCCCCCCCC)COC(=O)CCCCCCCCC` [C-A-C, Glycerol 1,3-didecanoate 2-eicosatetra-(5-Z,8-Z,11-Z,14-Z)enoate], in experiment [1], the “Severity of CREAE (in words)” value is reported as “capable of reducing severity of CREAE”.

On to `CCCCC/C=C\C/C=C\C/C=C\CCCCC(=O)OC(COC(=O)CCCCCCCCC)COC(=O)CCCCCCCCC` [C-G-C, Glycerol 1,3-didecanoate 2-octadecatri(6-Z9-Z,12-Z)enoate], for which, in experiment [1], the “Efficacy at low dose (FIG. 20)” value is given as “low dose efficacy”, the “Severity of CREAE (in words)” value was “capable of reducing severity of CREAE” and the “Shape of dose response” value is on record as “bell shaped response curve”.

On to `CCCCC/C=C\C/C=C\C/C=C\CCCCC(=O)OCC(COC(=O)CCCC/C=C\C/C=C\C/C=C\CCCCC)OC(=O)CCCC/C=C\C/C=C\C/C=C\CCCCC` [G-G-G, glycerol tri-6,9,12-linolenate], for which, in experiment [4], the “EAE severity score of the mice with histological changes” value was 1 and 1.5. Besides, in experiment [1], the “Severity of CREAE (in words)” value is given as “capable of reducing severity of CREAE” and the “Shape of dose response” value was “bell shaped response curve”.

In the case of `CCCCC/C=C/C/C=C/C/C=C/CCCCC(=O)OCC(COC(=O)CCCC/C=C/C/C=C/C/C=C/CCCCC)OC(=O)CCCC/C=C/C/C=C/C/C=C/CCCCC` [TG-GLA], in experiment [5], the “Mean Clinical Score” value is given as 1.0 ± 1.3^c and the “No. with EAE” value is recorded as 3/6. Also, the “Protective effect in CREAE (in words)” value in experiment [5] (compared with borage oil) is “protective effects similar to that of the borage oil”.

For `CCCCC/C=C\C/C=C\C/C=C\C/C=C\CCCC(=O)OCC(COC(=O)CCC/C=C\C/C=C\C/C=C\C/C=C\CCCCC)OC(=O)CCC/C=C\C/C=C\C/C=C\C/C=C\CCCCC` [A-A-A, Glycerol trieicosotetra5-Z,8-Z,11-Z,14Z-eneoate], the “Severity of CREAE (in words)” value in experiment [1] is listed as “capable of reducing severity of CREAE”.

For the compound `CCCCC/C=C\C/C=C\C/C=C\CCCCCCC(=O)OC(COC(=O)CCCCCCCCC)COC(=O)CCCCCCCCC` [C-DHGLA-C, Glycerol 1,3-didecanoate2-eicosa-(8Z,11Z,14Z)-trienoate], in experiment [1], the “Efficacy at low dose (FIG. 20)” value is listed as “low dose efficacy” and the “Severity of CREAE (in words)” value is “capable of reducing severity of CREAE”.

As to `CCCCC/C=C\C/C=C\C/C=C\CCCCC(=O)OCC` [EE-GLA], in experiment [5], the “Mean Clinical Score” value amounted to 3.0 ± 0.8 and the “No. with EAE” value is reported as 5/6.
